For 16 molecules, TGI results are on record in PubChem BioAssay (NCI).

Holding throughout (assay): inhibition of tumour cell growth, NCI panel, 48 h
The subject of assay [1] is RPMI-8226 leukemia.
Assay [2] concerns BT-549 breast.
The subject of assay [3] is OVCAR-8 ovarian.
Assay [4] deals with HCC-2998 colon.
In assay [5] the test system is SN12C renal.
In assay [6] the test system is CCRF-CEM leukemia.
The test system of assay [7] is T-47D breast.
The test system of assay [8] is SK-MEL-28 melanoma.
In assay [9] the test system is M19-MEL melanoma.
Assay [10] concerns DMS 114 small cell lung.

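Results reflect a 48-hour exposure of cells in 96-well plates to compound at five concentrations. TGI: total growth inhibition.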

Take `C[C@@H]1C(=O)CC2(O)[C@@]13C[C@@H](OC(=O)[C@@H]3O)[C@@H](C)[C@@]21COC1=O` (stereo partly drawn): the TGI in [1], in assay [2], in assay [3], in assay [4], in assay [5] and in [6] was more than 100 µM throughout. The TGI in assay [7] and in assay [8] was more than 100 µM throughout.

In the case of `CCOC(=O)Cc1nn2c(=O)cc(C)nc2s1`, the TGI in assay [1], in assay [2], in [3], in assay [4], in assay [5] and in assay [6] was more than 100 µM in each case. In addition, the TGI in [7] and in assay [8] was more than 100 µM each time.

As to `CC(C)(C)OC(=O)c1ccc(NCc2cc(O)ccc2O)cc1`, the TGI was 13 µM in assay [1]; 6.9 µM in assay [2]; more than 55.2 µM in assay [3]; 22.1 µM in assay [4]; 5.28 µM in [5]; 3.9 µM in [6]. Besides, the figures for the TGI in [7] and in assay [8] were 2.57 µM and 5.28 µM, respectively.

As to `CCOC(=O)/C(=C/c1ccco1)P(=O)(OCC)OCC`, the TGI in assay [1], in [3], in assay [4], in assay [5], in assay [6] and in assay [9] was more than 100 µM each time. For the same molecule, the TGI in [10] and in assay [8] was more than 100 µM in each case.

Turning to `COC(=O)C1=C(C)N2[C@H](C(=O)O)CS[C@@]2(C)[C@H](C(=O)OC)[C@H]1c1cccc([N+](=O)[O-])c1`, the TGI in assay [1], in assay [2], in [3], in [4], in assay [5] and in assay [6] was more than 100 µM in each case. Also, the TGI in assay [7] and in [8] was more than 100 µM each time.

For `COc1ccc(N2C(=O)C3c4[nH]c5ccccc5c4C4C(C)CCCC4C3C2=O)cc1` (stereo not drawn), the TGI in assay [1] was more than 100 µM; in assay [2], more than 33.6 µM; in [3], more than 100 µM; in assay [4], more than 100 µM; in assay [5] it was more than 100 µM; in assay [6], more than 100 µM. Further, the TGI in assay [7] and in [8] was more than 100 µM each time.

For `O=C(/C=C1\C[C@H]2C=Nc3ccccc3C(=O)N2C1)NCCCCCNC(=O)/C=C1\C[C@H]2C=Nc3ccccc3C(=O)N2C1`, the TGI in assay [1] was more than 72.7 µM; in [2] it was 26 µM; in assay [3], 7.31 µM; in assay [4], 32.7 µM; in [5], 10.6 µM; in assay [6], 12.7 µM. Also, the TGI came out at 15.7 µM in assay [7] and 27.4 µM in [8].

Consider `O=C(CN=C(CN(c1ccccc1)c1ccccc1)Oc1c(Cl)cc(Cl)cc1Cl)n1cnc2ccccc21`, for which the TGI in assay [1], in assay [2], in assay [3], in assay [4], in [5] and in assay [6] was more than 100 µM each time. Moreover, the TGI in [7] and in [8] was more than 100 µM in each case.

With `CC/C=C\C/C=C\C/C=C\CCCCCCCC(=O)OC(COC(=O)CCCCCCCCCCCCCCCCC)COC1OC(CO)C(O)C(O)C1O` (stereo not drawn), the TGI in assay [1], in assay [2], in [3], in assay [4], in assay [5] and in [6] was more than 25 µM in each case. In addition, the TGI in assay [7] and in [8] was more than 25 µM throughout.

`COc1ccc(CCCCl)c(C2=NCCc3ccccc32)c1`: the TGI in [1] was 21.7 µM; in assay [2], more than 100 µM; in [3], more than 100 µM; in [4], more than 100 µM; in assay [5], more than 100 µM; in [6], more than 100 µM. For the same molecule, the TGI in assay [7] and in assay [8] was more than 100 µM each time.

On to `CC(O)(C(=O)N(O)c1ccc(Cl)cc1)c1ccc(Cl)cc1` (stereo not drawn), for which the TGI in assay [1] was 37.3 µM; in assay [2], 61.5 µM; in assay [3], more than 100 µM; in assay [4], 38.7 µM; in assay [5] it was more than 100 µM; in assay [6] it was 34.4 µM. In addition, the TGI in assay [7] and in [8] was more than 100 µM in each case.

On to `CC(C)(C)c1ccc2c(c1)OCc1n[nH]c(n1)COc1cc(C(C)(C)C)ccc1OCCOCCO2`, for which the TGI was 8.41 µM in assay [1]; 10.9 µM in assay [2]; 14.3 µM in [3]; 13.9 µM in assay [4]; 16.7 µM in assay [5]; 26.8 µM in assay [6]. For the same molecule, the TGI in assay [7] was 12.4 µM; in assay [8], 9.52 µM.

As for `COn1cc(CO)c2ccccc21`, the TGI in assay [1], in assay [2], in assay [3], in assay [4], in [5] and in assay [6] was more than 100 µM throughout. The TGI in assay [7] and in assay [8] was more than 100 µM in each case.

Regarding `COc1cc2nc(-c3c(F)cccc3F)n(Cc3c(F)cccc3F)c2cc1Cc1c(F)cccc1F`, the TGI in assay [1], in [2], in assay [3], in assay [4], in assay [5] and in [6] was more than 100 µM each time. Moreover, the TGI in assay [7] was more than 100 µM; in assay [8] it was 1.4 µM.

With `Cc1cccc(NC(Nc2cccc(C)c2)=C(C(Cl)=C(Cl)Cl)[N+](=O)[O-])c1`, the TGI was more than 100 µM in assay [1]; 26.3 µM in [2]; 27.6 µM in assay [3]; more than 57.8 µM in [4]; 24 µM in assay [5]; more than 100 µM in assay [6]. The results for the TGI in assay [7] and in assay [8] were more than 53 µM and 41.2 µM, respectively.

As to `O=CN(O)CC(=O)O`, the TGI in assay [1], in [2], in [3], in [4], in [5] and in assay [6] was more than 100 µM each time. Further, the TGI in [7] and in [8] was more than 100 µM each time.
